In ChEMBL document CHEMBL5500339, “4-Hydroxy-2-pyridone derivatives with antitumor activity produced by mangrove endophytic fungus Talaromyces sp. CY-3” (Eur J Med Chem, 2024):
The source made the active and inactive calls. No cut-off for these calls is given here.

Key:
MDA-MB-231 = experiment: Cytotoxicity against human MDA-MB-231 cells assessed as reduction in cell viability incubated for 48 hrs by MTT assay; format: functional, cell-based; conditions: MDA-MB-231, 48 h
HCT-116 = experiment: Cytotoxicity against human HCT-116 cells assessed as reduction in cell viability incubated for 48 hrs by MTT assay; format: functional, cell-based; conditions: HCT-116, 48 h
PC-3 = experiment: Cytotoxicity against human PC-3 cells assessed as reduction in cell viability incubated for 48 hrs by MTT assay; format: functional, cell-based; conditions: PC-3, 48 h
NCI-H1703 [1] = experiment: Cytotoxicity against human NCI-H1703 cells assessed as reduction in cell viability incubated for 48 hrs by MTT assay; format: functional, cell-based; conditions: NCI-H1703, 48 h
CT26 = experiment: Cytotoxicity against mouse CT26 cells assessed as reduction in cell viability incubated for 48 hrs by MTT assay; format: functional, cell-based; conditions: CT26, 48 h
B16-F10 = experiment: Cytotoxicity against mouse B16-F10 cells assessed as reduction in cell viability incubated for 48 hrs by MTT assay; format: functional, cell-based; conditions: B16-F10, 48 h
[2] = Cytotoxicity against mouse Lewis lung carcinoma cell line assessed as reduction in cell viability incubated for 48 hrs by MTT assay; format: functional, cell-based
NCI-H1703 [3] = experiment: Inhibition of colony formation in human NCI-H1703 cells at 2.5 uM incubated for 7 days by crystal violet staining analysis; format: functional, cell-based; conditions: time 7.0 day
NCI-H1703 [4] = experiment: Antiproliferative activity against human NCI-H1703 cells assessed as inhibition of cell growth at 10 uM incubated for 24 hrs by MTT assay; format: functional, cell-based
NCI-H1703 [5] = experiment: Antiproliferative activity against human NCI-H1703 cells assessed as inhibition of cell growth at 20 uM incubated for 24 hrs by MTT assay; format: functional, cell-based
A549 [6] = experiment: Antiproliferative activity against human A549 cells assessed as inhibition of cell growth incubated for 18 hrs by Edu incorporation based fluorescence microscopic analysis; format: functional
NCI-H1703 [7] = experiment: Antiproliferative activity against human NCI-H1703 cells assessed as inhibition of cell growth incubated for 18 hrs by Edu incorporation based fluorescence microscopic analysis; format: functional
A549 [8] = experiment: Induction of cell cycle arrest in human A549 cells assessed as accumulation of cells at G1/G0 phase at 10 uM incubated for 24 hrs by flow cytometric analysis (reference value: 51.49 %); format: functional
A549 [9] = experiment: Induction of cell cycle arrest in human A549 cells assessed as accumulation of cells at S phase at 10 uM incubated for 24 hrs by flow cytometric analysis (reference value: 31.31 %); format: functional
A549 [10] = experiment: Induction of cell cycle arrest in human A549 cells assessed as accumulation of cells at G2/M phase at 10 uM incubated for 24 hrs by flow cytometric analysis (reference value: 17.2 %); format: functional
A549 [11] = experiment: Induction of cell cycle arrest in human A549 cells assessed as accumulation of cells at G1/G0 phase at 20 uM incubated for 24 hrs by flow cytometric analysis (reference value: 51.49 %); format: functional
A549 [12] = experiment: Induction of cell cycle arrest in human A549 cells assessed as accumulation of cells at S phase at 20 uM incubated for 24 hrs by flow cytometric analysis (reference value: 31.31 %); format: functional
A549 [13] = experiment: Induction of cell cycle arrest in human A549 cells assessed as accumulation of cells at G2/M phase at 20 uM incubated for 24 hrs by flow cytometric analysis (reference value: 17.2 %); format: functional
NCI-H1703 [14] = experiment: Induction of cell cycle arrest in human NCI-H1703 cells assessed as accumulation of cells at G1/G0 phase at 5 uM incubated for 24 hrs by flow cytometric analysis (reference value: 42.06 %); format: functional
NCI-H1703 [15] = experiment: Induction of cell cycle arrest in human NCI-H1703 cells assessed as accumulation of cells at G2/M phase at 5 uM incubated for 24 hrs by flow cytometric analysis (reference value: 29.88 %); format: functional
NCI-H1703 [16] = experiment: Induction of cell cycle arrest in human NCI-H1703 cells assessed as accumulation of cells at G1/G0 phase at 10 uM incubated for 24 hrs by flow cytometric analysis (reference value: 42.06 %); format: functional
NCI-H1703 [17] = experiment: Induction of cell cycle arrest in human NCI-H1703 cells assessed as accumulation of cells at S phase at 10 uM incubated for 24 hrs by flow cytometric analysis (reference value: 28.06 %); format: functional
NCI-H1703 [18] = experiment: Induction of cell cycle arrest in human NCI-H1703 cells assessed as accumulation of cells at G2/M phase at 10 uM incubated for 24 hrs by flow cytometric analysis (reference value: 29.88 %); format: functional
A549 [19] = experiment: Induction of cell cycle arrest in human A549 cells assessed as upregulation of p53 protein expression incubated for 24 hrs by Western blotting analysis; format: functional, cell-based
A549 [20] = experiment: Induction of cell cycle arrest in human A549 cells assessed as upregulation of p21 protein expression incubated for 24 hrs by Western blotting analysis; format: functional, cell-based
NCI-H1703 [21] = experiment: Induction of cell cycle arrest in human NCI-H1703 cells assessed as upregulation of p53 protein expression incubated for 24 hrs by Western blotting analysis; format: functional, cell-based
NCI-H1703 [22] = experiment: Induction of cell cycle arrest in human NCI-H1703 cells assessed as upregulation of p21 protein expression incubated for 24 hrs by Western blotting analysis; format: functional, cell-based
A549 [23] = experiment: Induction of cell cycle arrest in human A549 cells assessed as downregulation of CDK4 protein expression incubated for 24 hrs by Western blotting analysis; format: functional, cell-based
A549 [24] = experiment: Induction of cell cycle arrest in human A549 cells assessed as downregulation of CDK6 protein expression incubated for 24 hrs by Western blotting analysis; format: functional, cell-based
A549 [25] = experiment: Induction of cell cycle arrest in human A549 cells assessed as downregulation of CyclinD1 protein expression incubated for 24 hrs by Western blotting analysis; format: functional, cell-based
NCI-H1703 [26] = experiment: Induction of cell cycle arrest in human NCI-H1703 cells assessed as downregulation of CDK4 protein expression incubated for 24 hrs by Western blotting analysis; format: functional, cell-based
NCI-H1703 [27] = experiment: Induction of cell cycle arrest in human NCI-H1703 cells assessed as downregulation of CDK6 protein expression incubated for 24 hrs by Western blotting analysis; format: functional, cell-based
A549 [28] = experiment: Induction of cell cycle arrest in human A549 cells assessed as downregulation of Rb phosphorylation at Ser807/811 residue at 10 uM incubated for 24 hrs by Western blotting analysis; format: functional, cell-based
NCI-H1703 [29] = experiment: Induction of cell cycle arrest in human NCI-H1703 cells assessed as downregulation of Rb phosphorylation at Ser807/811 residue at 5 uM incubated for 24 hrs by Western blotting analysis; format: functional, cell-based
A549 [30] = experiment: Induction of cell cycle arrest in human A549 cells assessed as downregulation of total Rb protein level at 10 uM incubated for 24 hrs by Western blotting analysis; format: functional, cell-based
A549 [31] = experiment: Induction of cell cycle arrest in human A549 cells assessed as downregulation of total Rb protein level at 20 uM incubated for 24 hrs by Western blotting analysis; format: functional, cell-based
NCI-H1703 [32] = experiment: Induction of cell cycle arrest in human NCI-H1703 cells assessed as downregulation of total Rb protein level at 5 uM incubated for 24 hrs by Western blotting analysis; format: functional, cell-based
NCI-H1703 [33] = experiment: Induction of cell cycle arrest in human NCI-H1703 cells assessed as downregulation of total Rb protein level at 10 uM incubated for 24 hrs by Western blotting analysis; format: functional, cell-based

**Q.** For `C/C=C/[C@@H]1[C@H]2C[C@@H](C)CC[C@@H]2C(C)=C[C@H]1C(=O)c1c(O)c(-c2ccc(O)cc2)c[nH]c1=O` [ILICICOLIN H], which IC50 (MDA-MB-231) is on record?
**A.** 9.98 µM

**Q.** And the IC50 (HCT-116)?
**A.** 10.8 µM

**Q.** What about the IC50 (PC-3) of the same compound?
**A.** > 50 µM

**Q.** What about the IC50 (NCI-H1703 [1]) of the same compound?
**A.** 6.65 µM

**Q.** What about the IC50 (CT26) of the same compound?
**A.** 19.5 µM

**Q.** And the IC50 (B16-F10)?
**A.** 21.6 µM

**Q.** And the IC50 [2]?
**A.** 5.78 µM

**Q.** And the inhibition (NCI-H1703 [3])?
**A.** Active

**Q.** What about the Activity (NCI-H1703 [4]) of the same compound?
**A.** Active

**Q.** What about the Activity (NCI-H1703 [5]) of the same compound?
**A.** Active

**Q.** And the Activity (A549 [6])?
**A.** Dose-Dependent Effect

**Q.** And the Activity (NCI-H1703 [7])?
**A.** Dose-Dependent Effect

**Q.** And the Activity (A549 [8])?
**A.** 64.26%

**Q.** And the Activity (A549 [9])?
**A.** 10.84%

**Q.** And the Activity (A549 [10])?
**A.** 24%

**Q.** And the Activity (A549 [11])?
**A.** 72.12%

**Q.** What about the Activity (A549 [12]) of the same compound?
**A.** 14.95%

**Q.** What about the Activity (A549 [13]) of the same compound?
**A.** 12.93%

**Q.** What about the Activity (NCI-H1703 [14]) of the same compound?
**A.** 50.13%

**Q.** What about the Activity (NCI-H1703 [15]) of the same compound?
**A.** 26.61%

**Q.** What about the Activity (NCI-H1703 [16]) of the same compound?
**A.** 56.04%

**Q.** And the Activity (NCI-H1703 [17])?
**A.** 24.49%

**Q.** What about the Activity (NCI-H1703 [18]) of the same compound?
**A.** 19.48%

**Q.** And the Activity (A549 [19])?
**A.** Dose-Dependent Effect

**Q.** What about the Activity (A549 [20]) of the same compound?
**A.** Dose-Dependent Effect

**Q.** And the Activity (NCI-H1703 [21])?
**A.** Dose-Dependent Effect

**Q.** What about the Activity (NCI-H1703 [22]) of the same compound?
**A.** Dose-Dependent Effect

**Q.** And the Activity (A549 [23])?
**A.** Dose-Dependent Effect

**Q.** And the Activity (A549 [24])?
**A.** Dose-Dependent Effect

**Q.** And the Activity (A549 [25])?
**A.** Dose-Dependent Effect

**Q.** What about the Activity (NCI-H1703 [26]) of the same compound?
**A.** Dose-Dependent Effect

**Q.** What about the Activity (NCI-H1703 [27]) of the same compound?
**A.** Dose-Dependent Effect

**Q.** What about the Activity (A549 [28]) of the same compound?
**A.** Active

**Q.** And the Activity (NCI-H1703 [29])?
**A.** Active

**Q.** What about the Activity (A549 [30]) of the same compound?
**A.** inactive

**Q.** What about the Activity (A549 [31]) of the same compound?
**A.** inactive

**Q.** What about the Activity (NCI-H1703 [32]) of the same compound?
**A.** inactive

**Q.** And the Activity (NCI-H1703 [33])?
**A.** inactive
